Measured values: US20130237478A1, “COMPOSITIONS AND METHODS FOR TREATMENT OF PERIPHERAL VASCULAR DISEASE” (TARIX PHARMACEUTICALS LTD., priority 2012, published 2013)
Positions of bridges follow the written chain, without caps; N, C: chain ends. No end group written: not given here.

Key:
[1] = tested on: hind limb ischemia; assay: Semi-quantitative assessment of limb function in mouse hind limb ischemia model; format: in vivo, Balb/c mice
Source text: A stable hind limb ischemia model has been described previously and is generally characterized by uniform ischemic damage useful for examining the effect of various therapies (Goto, et al. Tokai J Exp Clin Med, 31(3):128 2006; Kang Y, et al. PLoS One. 2009; 4(1):e4275)). The hind limb ischemia model in mice used in this example involves two ligations of the proximal end of the femoral artery and its dissection between the two ligatures. The surgery causes obstruction of the blood flow and subsequently leads to severe ischemic damage (Goto, et al.; Kang, et al.). In this experiment, healthy adult female Balb/c mice were used. Hind limb ischemia was induced in mice using protocols previously described. Briefly, Balb/c female mice were maintained on a standard diet with water available ad libitum. Mice were anesthetized and an incision was made in the skin in the inguinal area. The femoral artery was ligated twice with 6-0 silk thread and transected between the ligatures after this the wound was closed with 4-0 silk thread and the mouse was allowed to recover.
An Angiotensin (1-7) polypeptide composition (TXA127) and vehicle control (DPBS) were supplied as ready to use solutions and were stored at 4° C. until use. TXA127 was injected subcutaneously (500 μg/kg) daily starting on day 1, 24 hours after inducing ischemia, until the end of the study. […]
Semi-quantitative assessment of impaired use of the ischemic limb was performed once a week post-surgery using the scale shown in Table 6 (Stabile et al, Circulation 108(2):205 2003). […]
An Angiotensin (1-7) polypeptide composition (PanCyte) and vehicle control (DPBS) were supplied as ready to use solutions and were stored at 4° C. until use. […]
Semi-quantitative assessment of impaired use of the ischemic limb was performed once a week post-surgery using the scale shown in Table 6 above. […]
An Angiotensin (1-7) polypeptide composition (PanCyte, cyclized Asp^1-Arg^2-Val^3-Ser^4-Ile^5-His^6-Cys (SEQ ID NO:22)) and vehicle control (DPBS) were supplied as ready to use solutions and were stored at 4° C. until use. […]

[2] = Body weight of mice in hind limb ischemia studies; format: in vivo, Balb/c mice; settings: throughout the study
Protocol: Body weight of animals was measured before the surgery and once weekly thereafter.
The model and procedures used for this example is the same as for those in Examples 1 and 2, unless otherwise specified.

[3] = tested on: Transient middle cerebral artery occlusion (tMCAO); assay: Body swing test after tMCAO stroke; format: in vivo, rats; settings: for body swing performance vs vehicle: by Day 28
Protocol: For the purposes of this example, Transient middle cerebral artery occlusion (tMCAO) procedure Day is defined as “Day 1” in this study. On the day of surgery anesthesia were induced with 4% isoflurane in a mixture of 70% N2O and 30% O2 and maintained with 1.5-2% isoflurane.
The tMCAO procedures were performed according to the method described R. Schmid-Elsaesser et al. Briefly, the right CCA (Common Carotid Artery) was exposed through a midline neck incision and carefully dissected free from surrounding nerves and fascia—from its bifurcation to the base of the skull. The occipital artery branches of the ECA (External Carotid Artery) were then isolated, and these branches were dissected and coagulated. The ECA was dissected further distally and coagulated along with the terminal lingual and maxillary artery branches, which was then divided. The ICA (Internal Carotid Artery) was isolated and carefully separated from the adjacent vagus nerve, and the pterygopalatine artery was ligated close to its origin with a 5-0 nylon suture (SMI, Belgium). Next, a 4-0 silk suture was tied loosely around the mobilized ECA stump, and a 4 cm length of 4-0 monofilament nylon suture (the tip of the suture was blunted by using a flame, and the suture was coated with polylysine, prior to insertion) was inserted through the proximal ECA into the ICA and thence into the circle of Willis, effectively occluding the MCA. The surgical wound was closed and the animals were returned to their cages to recover from anesthesia. One hour and a half after occlusion rats were re-anesthetized, the monofilament was withdrawn to allow reperfusion, the surgical wound was closed and rats were returned to their cages.
Animals were subjected to a modified Modified Neurological Rating Scale (mNRS) at 24 hours post reperfusion. Only animals with an overall score of ≧10 were included in this study. Animals were allocated into the test groups, according to the mNRS results on day 2, in order to have similar distribution of rats performance between groups. Starting on day 2, 24 hours post-surgery, animals in groups 4, 5 and 7 were implanted subcutaneously with an osmotic Alzet pump and treated with either 500 μg/kg TXA127, 500 μg/kg PanCyte, or 50 μg/kg Linear PanCyte. Animals in groups 2, 3 and 6 received 500 μg/kg or 1,000 μg/kg TXA127 or 500 μg/kg PanCyte, administered subcutaneously via daily injection. Animals in group 1 were treated with a daily subcutaneous injection of a PBS (vehicle).
Each rat was held approximately one inch from the base of its tail. It was then elevated to an inch above a surface of a table. The rat was held in the vertical axis, defined as no more than 10° to either the left or the right side. A swing was recorded whenever the rat moves its head out of the vertical axis to either side. Before attempting another swing, the rat must return to the vertical position for the next swing to be counted. Twenty (20) total swings were counted. A normal rat typically has an equal number of swings to either side. Following focal ischemia, the rat tends to swing to the contralateral side (left side in this case). Body swing scores are expressed as a percentage of […] over total swings.

In the case of “cyclized Asp^1-Arg^2-Val^3-Ser^4-Ile^5-His^6-Cys (SEQ ID NO:22) (DRVSIHC; bridge 4-7; not fully specified; printed as Asp1-Arg2-Val3-Ser4-Ile5-His6-Cys7) [PanCyte, cyclic angiotensin peptide]”, the “limb function vs control” value ([1]; Example 2, 500 μg/kg SC daily (2F), day 28) is reported as “improvement in limb function”, the “limb function vs control” value ([1]; Example 3, 1 μg/kg SC daily (2F), days 14 and 21) is reported as “improvement in limb function” and the “limb function vs control” value ([1]; Example 3, 50 μg/kg continuous infusion by Alzet pump (6F), days 14 and 21) is reported as “improvement in limb function”. For the same substance, the “body weight vs vehicle” value ([2]; Example 2, 500 or 50 μg/kg SC daily) was “no statistically significant differences”, the “body weight vs vehicle” value ([2]; Example 3, 1-50 μg/kg SC) was “no statistically significant differences” and the “body swing performance vs vehicle” value ([3]; 500 μg/kg SC daily) was “significant improvement in performance”. For the same substance, the body swing performance ([3]; 500 μg/kg by Alzet pump, by Day 21) was “showed improvement” and the “body swing performance vs vehicle” value ([3]; 500 μg/kg by Alzet pump) was “significant improvement in performance”.
